Experimental data reported in EP4818168A1, “FUSED RING COMPOUND, PHARMACEUTICAL COMPOSITION THEREOF AND USE THEREOF” (priority 2023, dated 2025).
Like-named read-outs stand apart in the source and are kept apart here.

How the values were obtained:
AURKA = target: T1, AURKA (Homo sapiens, UniProt O14965); assay type: cell-based
T1 construct: endogenous in cells; host or cells: Jurkat cells
T1 sequence (O14965 1-403): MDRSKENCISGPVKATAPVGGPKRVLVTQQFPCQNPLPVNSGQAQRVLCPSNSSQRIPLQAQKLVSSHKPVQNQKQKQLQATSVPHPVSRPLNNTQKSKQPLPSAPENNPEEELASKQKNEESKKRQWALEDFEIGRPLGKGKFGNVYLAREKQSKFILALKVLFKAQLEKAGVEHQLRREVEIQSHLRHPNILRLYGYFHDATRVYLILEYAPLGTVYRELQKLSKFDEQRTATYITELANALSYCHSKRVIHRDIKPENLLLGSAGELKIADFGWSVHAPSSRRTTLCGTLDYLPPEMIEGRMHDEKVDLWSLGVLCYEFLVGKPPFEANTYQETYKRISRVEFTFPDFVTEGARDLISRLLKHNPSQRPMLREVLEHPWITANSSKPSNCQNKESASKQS
Method in brief: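 AURKA degradation read by western blot: band signal, fluorescent or chemiluminescent, curve-fitted to derive DC50. Cells were Jurkat, plated at 1×10^6 cells/500 µL with compound, then lysed and blotted onto nitrocellulose, primary antibody overnight at 4°C.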

H82 cells = test: cells; assay type: cell-based; conditions: Homo sapiens
Method in brief: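 After 6 days' compound treatment at 37 °C (final DMSO 0.1%, RPMI1640/10% FBS), viable H82 cells were quantified by ATP-dependent CellTiter-Glo luminescence. Remaining activity was calculated against DMSO and medium wells, and a sigmoidal fit gave IC50.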

[1] = 100 nM compound, Jurkat cells, 24 h, Table 2
[2] = 1 µM compound, Jurkat cells, 24 h, Table 2
[3] = NCI-H82, H82 cells, 4000 cells/well, CellTiter-Glo, read-out: IC50 in H82 Cells
[4] = NCI-H82, read-out: IC50 in H82 Cells

Compound | Percentage of AURKA Degradation Induced by 100 nM Compound in Jurkat Cells (AURKA; [1]) | Percentage of AURKA Degradation Induced by 1 µM Compound in Jurkat Cells (AURKA; [2]) | IC50 (H82 cells; [3]) [nM] | IC50 (H82 cells; [4]) [nM] | Percentage of AURKA Degradation Induced by 100 nM Compound in Jurkat Cells (AURKA) | Percentage of AURKA Degradation Induced by 1 µM Compound in Jurkat Cells (AURKA)
O=C1CCN(c2ccc(N3CCC4(CC3)CC(N3CCN(c5ccc(Nc6ncc7c(n6)-c6ccc(Cl)cc6C(c6nccs6)=NC7)cc5)C(=O)C3)CO4)nc2)C(=O)N1 (stereo not drawn) [Compound A337] | +++ (Degradation > 70%) | +++ (Degradation > 70%) | < 1000 |  |  | 
O=C1CCN(c2ccc(N3CCC4(CC3)CC(N3CCN(C56CC(Nc7ncc8c(n7)-c7ccc(Cl)cc7C(c7nccs7)=NC8)(C5)C6)C(=O)C3)CO4)nc2)C(=O)N1 (stereo not drawn) [Compound A339] | +++ (Degradation > 70%) | +++ (Degradation > 70%) | < 1000 |  |  | 
O=C1CCN(c2ccc(N3CCC4(CC3)C[C@@H](N3CCN(c5ccc(Nc6ncc7c(n6)-c6ccc(Cl)cc6C(c6c(F)cccc6F)=NC7)cc5)CC3)CO4)nc2)C(=O)N1 [Compound A341] | +++ (Degradation > 70%) | +++ (Degradation > 70%) |  | < 1000 |  | 
O=C1CCN(c2ccc(N3CCC4(CC3)C[C@H](N3CCN(c5ccc(Nc6ncc7c(n6)-c6ccc(Cl)cc6C(c6c(F)cccc6F)=NC7)cc5)CC3)CO4)nc2)C(=O)N1 [Compound A342] | +++ (Degradation > 70%) | +++ (Degradation > 70%) |  | < 1000 |  | 
O=C1CCN(c2ccc(N3CCOC(C(=O)N4CCN(c5ccc(Nc6ncc7c(n6)-c6ccc(Cl)cc6C(c6nccs6)=NC7)cc5)CC4)C3)nc2)C(=O)N1 (stereo not drawn) [Compound A343] | +++ (Degradation > 70%) | +++ (Degradation > 70%) | < 1000 |  |  | 
O=C1CCN(c2ccc(N3CCC4(CC3)CC(N3CCN(c5ccc(Nc6ncc7c(n6)-c6ccc(Cl)cc6C(c6nccs6)=NC7)cc5)CC3)CO4)nc2)C(=O)N1 (stereo not drawn) [Compound A345] | +++ (Degradation > 70%) | +++ (Degradation > 70%) | < 1000 |  |  | 
O=C1CCN(c2ccc(N3CCC4(CC3)CN(C3CCN(c5ccc(Nc6ncc7c(n6)-c6ccc(Cl)cc6C(c6c(F)cccc6F)=NC7)cc5)CC3)CCO4)nc2)C(=O)N1 [Compound A346] |  |  |  | < 1000 | +++ (key: +: Degradation ≤ 30%; ++: 30% < Degradation ≤ 70%; +++: Degradation > 70%) | +++ (key: +: Degradation ≤ 30%; ++: 30% < Degradation ≤ 70%; +++: Degradation > 70%)
O=C1CCN(c2ccc(N3CCC4(CC3)CN(C3CCN(c5cccc(Nc6ncc7c(n6)-c6ccc(Cl)cc6C(c6c(F)cccc6F)=NC7)c5)CC3)CCO4)nc2)C(=O)N1 [Compound A347] |  |  |  | < 1000 | +++ (key: +: Degradation ≤ 30%; ++: 30% < Degradation ≤ 70%; +++: Degradation > 70%) | +++ (key: +: Degradation ≤ 30%; ++: 30% < Degradation ≤ 70%; +++: Degradation > 70%)
O=C1CCN(c2ccc(N3CCC(N4CCC(c5ccc(Nc6ncc7c(n6)-c6ccc(Cl)cc6C(c6c(F)cccc6F)=NC7)cc5)C(F)(F)C4)CC3)nc2)C(=O)N1 (stereo not drawn) [Compound A350] | +++ (Degradation > 70%) | +++ (Degradation > 70%) |  | < 1000 |  | 
O=C1CCN(c2ccc(N3CCC4(CC3)CC(N3CCC(c5ccc(Nc6ncc7c(n6)-c6ccc(Cl)cc6C(c6c(F)cccc6F)=NC7)cc5)C(F)(F)C3)CO4)nc2)C(=O)N1 (stereo not drawn) [Compound A351] | +++ (Degradation > 70%) | +++ (Degradation > 70%) | < 1000 |  |  | 
O=C1CCN(c2ccc(N3CCC4(CC3)CN(C3CN(c5ccc(Nc6ncc7c(n6)-c6ccc(Cl)cc6C(c6c(F)cccc6F)=NC7)cc5)C3)CCO4)nc2)C(=O)N1 [Compound A352] | +++ (Degradation > 70%) | +++ (Degradation > 70%) |  | < 1000 |  | 
O=C1CCN(c2ccc(N3CCC4(CC3)CN(CC3CN(c5ccc(Nc6ncc7c(n6)-c6ccc(Cl)cc6C(c6c(F)cccc6F)=NC7)cc5)C3)CCO4)nc2)C(=O)N1 [Compound A353] | +++ (Degradation > 70%) | +++ (Degradation > 70%) | < 1000 |  |  | 
O=C1CCN(c2ccc(N3CCC4(CC3)CCN(C3CCN(c5ccc(Nc6ncc7c(n6)-c6ccc(Cl)cc6C(c6c(F)cccc6F)=NC7)cc5)CC3)CCO4)nc2)C(=O)N1 [Compound A355] | +++ (Degradation > 70%) | +++ (Degradation > 70%) |  | < 1000 |  | 
O=C1CCN(c2ccc(N3CC4COCC(C3)N4C3CCN(c4ccc(Nc5ncc6c(n5)-c5ccc(Cl)cc5C(c5c(F)cccc5F)=NC6)cc4)CC3)nc2)C(=O)N1 [Compound A356] | +++ (Degradation > 70%) | +++ (Degradation > 70%) | < 1000 |  |  | 
O=C1CCN(c2ccc(N3CCC(N4C5COCC4CN(c4ccc(Nc6ncc7c(n6)-c6ccc(Cl)cc6C(c6c(F)cccc6F)=NC7)cc4)C5)CC3)nc2)C(=O)N1 [Compound A357] | ++ (30% < Degradation ≤ 70%) | + (Degradation ≤ 30%) | < 1000 |  |  | 
O=C1CCN(c2ccc(N3CC4COCC(C3)N4CC3CN(c4ccc(Nc5ncc6c(n5)-c5ccc(Cl)cc5C(c5c(F)cccc5F)=NC6)cc4)C3)nc2)C(=O)N1 [Compound A358] | +++ (Degradation > 70%) | +++ (Degradation > 70%) | < 1000 |  |  | 
O=C1CCN(c2ccc(N3CC4COCC(C3)N4CC3CCN(c4ccc(Nc5ncc6c(n5)-c5ccc(Cl)cc5C(c5c(F)cccc5F)=NC6)cc4)CC3)nc2)C(=O)N1 [Compound A359] | +++ (Degradation > 70%) | +++ (Degradation > 70%) | < 1000 |  |  | 
O=C1CCN(c2ccc(N3CC4COCC(C3)N4C3CC4(CCN(c5ccc(Nc6ncc7c(n6)-c6ccc(Cl)cc6C(c6c(F)cccc6F)=NC7)cc5)CC4)C3)nc2)C(=O)N1 [Compound A360] | +++ (Degradation > 70%) | +++ (Degradation > 70%) | < 1000 |  |  | 
O=C1CCN(c2ccc(N3CCC4(CC3)CC(N3CCN(C56CC(Nc7ncc8c(n7)-c7ccc(Cl)cc7C(c7c(F)cccc7F)=NC8)(C5)C6)CC3)CO4)nc2)C(=O)N1 (stereo not drawn) [Compound A361] | +++ (Degradation > 70%) | +++ (Degradation > 70%) | < 1000 |  |  | 
Cn1nc(N2CCC(=O)NC2=O)c2ccc(N3CC4COCC(C3)N4C3CCN(c4ccc(Nc5ncc6c(n5)-c5ccc(Cl)cc5C(c5c(F)cccc5F)=NC6)cc4)CC3)cc21 [Compound A362] | +++ (Degradation > 70%) | ++ (30% < Degradation ≤ 70%) |  | < 1000 |  | 
COc1cccc(F)c1C1=NCc2cnc(Nc3ccc(N4CCN(C5COC6(CCN(c7ccc(N8CCC(=O)NC8=O)cn7)CC6)C5)CC4)cc3)nc2-c2ccc(Cl)cc21 (stereo not drawn) [Compound A363] | +++ (Degradation > 70%) | +++ (Degradation > 70%) | < 1000 |  |  | 
Cn1nc(N2CCC(=O)NC2=O)c2cccc(N3CCC4(CC3)CC(N3CCN(c5ccc(Nc6ncc7c(n6)-c6ccc(Cl)cc6C(c6c(F)cccc6F)=NC7)cc5)CC3)CO4)c21 (stereo not drawn) [Compound A364] | +++ (Degradation > 70%) | +++ (Degradation > 70%) |  | < 1000 |  | 
